Measurements: US9737502B2, “Calebin A for hepatic steatosis” (SAMI LABS LIMITED, priority 2011, dated 2017)

How the values were obtained:
TNF-α [1] = assay: Intracellular TNF-α in LPS-stimulated murine neutrophils (flow cytometry); assay type: cell-based; details: for Expression of TNF-α Mean ± S.E: LPS Control 2.62 ± 0.01
Procedure: The present inventors also adduce extra evidence to support the ability of Calebin A to suppress intracellular TNF and extracellular IL-1β in murine neutrophil systems (Table II, Table III). Neutrophils are isolated by histopaque gradient method tested for their ability to produce in vitro TNF-α following stimulation with Lipopolysaccharide (LPS). The cells were incubated with phycoerythrin (PE)-labeled anti-mouse TNF-α in the dark, and after being washed with sterile PBS, samples were resuspended in PBS (pH 7.4) and acquired directly on the flow cytometer (BDLSR; Becton Dickinson). A fluorescence trigger was set on the PE […] parameter of the gated neutrophil populations (10,000 events). Rolipram at 100 μg/ml was used as standard inhibitor of TNF-α in this study. Fluorescence compensation, data analysis, and data presentation were performed using Cell Quest Pro software (Becton Dickinson).

TNF-α [2] = assay: Estimation of TNF-α in adipocyte supernatant by ELISA; assay type: cell-based; details: human adipocytes
Procedure: 3T3-L1 cells approximately 60×10^4 cells are seeded for 48-72 hrs to get 70-80% confluence. After 48 hrs 200 μl of AIM (Adipogenesis induction medium) freshly prepared is added. 72 hrs later 200 μl APM (Adipogenesis progression medium) with the test compounds in different concentrations is added to the wells. The cells are incubated for 48 hrs in a humidified atmosphere (37° C.) of 5% CO2 and 95% air. The supernatant is collected and stored for the estimation of leptin, adiponectin, IL-6 and TNF-α by ELISA. Cells are fixed by adding 100 μl of 10% formalin and ORO staining is done. OD is read at 492 nm in microplate reader. The results are expressed as IC50 values using Graphpad prism software.
The percentage of inhibition of adipogenesis is calculated as follows, % inhibition=C−T/[…] Where C-absorbance of Oil red 0 in differentiating/undifferentiated cells T-absorbance of Oil Red-O in sample treated differentiating/undifferentiated cells. The estimation of leptin, adiponectin, IL-6 and TNF-α is done according to user's manual from R&D Systems.

TNF-α [3] = assay: Serum TNF-α in LPS-injected mice after 6 days oral treatment (ELISA); assay type: in vivo, Swiss albino mice; details: graded doses, then LPS 1 mg/kg i.v., serum 90 min after LPS
Procedure: The present inventors also adduce study data on the ability of Calebin A to reduce expression of Extracellular TNF-α, IL-1 beta [FIG. 6] and IL-6 [FIG. 7] in serum from treated mice (in-vivo models). Swiss albino male mice aged 6-8 weeks were maintained at 22±2° C. under 12/12 h light dark cycle. Mice received oral treatment of test drugs at graded doses (w/v) for 6 days, followed by intravenous injection of 1 mg/kg of LPS according to the method described by Brieva A, Guerrero A, Alonso-Lebrero J L and Pivel J P. 2001. Immunoferon, a glycoconjugate of natural origin, inhibits LPS-induced TNF-α production and inflammatory responses. International Immunopharmacology 1, 1979-1987. Six mice were employed in each group and experiments were performed in triplicates. TNF-α, IL-1 beta and IL-6 production was evaluated by a commercial ELISA kits (R&D Systems) in serum from treated mice, 90 min after LPS injection. Rolipram at 30 mg/kg was used as standard drug.

IL-1β = assay: Extracellular IL-1β in LPS-stimulated murine neutrophils; assay type: cell-based; details: for IL-1β Concentration: LPS Control 51.80 ± 2.18
3T3-L1 preadipocytes = assay: Differentiation and adipogenesis of 3T3-L1 preadipocytes, Oil Red O (Example IV); assay type: cell-based, Mouse; details: 5, 10, 15, 20, 25 and 30 μM for 8 days
Procedure: Mouse 3T3-L1 pre-adipocytes purchased from the American Type Culture Collection (Rockville, Md.) were grown in Dulbecco's Modified Eagle's Medium (DMEM) supplemented with 2 mM glutamine (GIBCO BRL), 1% penicillin/streptomycin (10000 units of penicillin/mL and 10 mg streptomycin/mL) and 10% fetal calf serum (FCS) at 37° C. under a humidified 5% CO2 atmosphere. Briefly, cells were seeded into 24-well (2×10^4/mL) or 10 cm dish with DMEM containing 10% fetal bovine serum (FBS) to full confluence. […]
At the end of differentiation, cells were washed twice with phosphate-buffered saline (PBS), fixed with 10% formalin for 60 min, stained with 0.5% Oil Red O in isopropanol for 1 h at room temperature. […] To quantify lipid accumulation, the stained lipid droplets were dissolved in isopropanol and the absorbance was measured at 520 nm.
Differentiation of 3T3-L1 preadipocytes stained with Oil Red O and photographed (upper and middle). 3T3-L1 preadipocytes were incubated with MDI (DMEM with IBMX, DEX, and insulin) for 2 days and then replaced with DMEM containing insulin with or without Calebin A (0, 5, 10, 15, 20, 25 and 30 μM), respectively, for 8 days, Lipid content was extracted from Oil Red O stained cells by 2-propanol and quantified by spectrophotometric analysis at 520 nm.

Compound: COc1cc(/C=C/C(=O)COC(=O)/C=C/c2ccc(O)c(OC)c2)ccc1O [Calebin A]
- % Activity (suppression of TNF-α expression) (TNF-α [1]; 0.5 μg/ml): 28.62%↓
- Expression of TNF-α Mean ± S.E (TNF-α [1]; 0.5 μg/ml): 1.87 ± 0.04
- % Activity (suppression of TNF-α expression) (TNF-α [1]; 1.0 μg/ml): 35.11%↓
- Expression of TNF-α Mean ± S.E (TNF-α [1]; 1.0 μg/ml): 1.70 ± 0.02
- % Activity (suppression of TNF-α expression) (TNF-α [1]; 2.0 μg/ml): 39.31%↓
- Expression of TNF-α Mean ± S.E (TNF-α [1]; 2.0 μg/ml): 1.59 ± 0.05
- percentage inhibition of TNF-α (TNF-α [2]; 0.5 μg/ml): 36.03%
- percentage inhibition of TNF-α (TNF-α [2]; 1.0 μg/ml): 40.81%
- percentage inhibition of TNF-α (TNF-α [2]; 2.0 μg/ml): 45.47%
- expression of TNF-α in serum (TNF-α [3]): effective in reducing
- % Activity (suppression of IL-1 β expression) (IL-1β; 0.5 μg/ml): 20.38%↓
- IL-1β Concentration (IL-1β; 0.5 μg/ml): 41.24 ± 1.16 pg/mL
- % Activity (suppression of IL-1 β expression) (IL-1β; 1.0 μg/ml): 24.20%↓
- IL-1β Concentration (IL-1β; 1.0 μg/ml): 39.26 ± 2.52 pg/mL
- % Activity (suppression of IL-1 β expression) (IL-1β; 2.0 μg/ml): 28.26%↓
- IL-1β Concentration (IL-1β; 2.0 μg/ml): 37.16 ± 2.11 pg/mL
- differentiation and adipogenesis of 3T3-L1 preadipocytes (3T3-L1 preadipocytes): inhibits
